{"source": "patent US20230144898A1", "about": "“INHIBITOR OF ASPARTIC ACID SYNTHESIS IN TUMOR CELLS, INHIBITOR OF SPHEROID FORMATION OF TUMOR CELLS, INHIBITOR OF TUMOR CELL METASTASIS, ACTIVITY ENHANCER OF GLYCOLYTIC INHIBITOR, AND PHARMACEUTICAL COMPOSITION FOR SUPPRESSING AND/OR PREVENTING TUMOR METASTASIS” (CCI HOLDINGS INC., priority 2020, published 2023)", "key": {"[1]": {"system": "ASF4-1 cells (normal human skin-derived fibroblasts)", "experiment": "Proliferation inhibition, normal fibroblasts compared with tumor cells (Test Example 1)", "format": "cell-based", "experimental": "First, CMeCl cells (canine malignant melanoma cells) were seeded in a six-well plate so as to be 0.5×10^5 cells/mL, and after 24 hours therefrom, each of the above four kinds of compounds (final concentration: 0.01 to 100 µg/mL) was suspended in the medium at a ratio of 0.1% and incubated for 72 hours. 72 hours after the start of culture, the number of viable cells was measured by trypan blue staining. At this time, viable cells (cell viability%) were calculated as the relative number of cells when the number of viable cells in a negative control section (DMSO treatment) was taken as 100%. Then, IC50 was calculated using a GraphPad Prism software system (GraphPad Software Inc.).\nFurthermore, the results of the same test as described above using ASF4-1 cells, which are normal human skin-derived fibroblasts, and A2058 cells, which are human malignant melanoma cells, are shown in FIG. 1C in comparison with the case of using B16F10 cells."}, "[2]": {"system": "mitochondria in B16F10 cells", "experiment": "MitoTracker Orange staining of mitochondria (Test Example 8)", "format": "cell-based, mouse", "experimental": "In order to determine the action mechanism of neopetasin on inhibiting the aspartic acid synthesis in tumor cells, the influence of neopetasin on mitochondria in B16F10 cells was evaluated. Specifically, B16F10 cells treated with neopetasin (3 µM) for 48 hours through the same method as in Test Example 1 were stained using MitoTracker Orange (Thermo Fisher Scientific, MA, USA), which labels mitochondria depending on membrane potential. In addition, as a positive control section, in place of neopetasin, metformin known as a mitochondrial respiratory chain Complex I inhibitor (mitochondrial toxin) was used at a concentration of 5000 µM to perform the same experiment. Subsequently, the cells stained as described above were photographed with a fluorescence microscope (FIG. 9A). In addition, the relationship between fluorescence intensity of the cells and the distribution of the number of cells was measured using an image cytometer (Tali, Thermo Fisher Scientific, MA, USA) (FIG. 9B)."}, "B16F10 cells [3]": {"system": "B16F10 cells", "experiment": "Metabolomic analysis (amino acids) by CE-TOFMS (Test Example 7)", "format": "cell-based, mouse", "experimental": "The metabolomic analysis (amino acids) of neopetasin-treated B16F10 cells was performed. Specifically, for B16F10 cells treated with neopetasin (3 µM) through the same method as in Test Example 1, the cells were recovered at each time point of 9 hours and 48 hours after the treatment, and amino acid concentration was measured using a capillary electrophoresis-time of flight mass spectrometer (CE-TOFMS). Furthermore, the amino acid concentration in the sample was measured according to an internal standard calibration method, and the internal standard concentration in the sample was calculated as 25 µM. Moreover, for the analysis, Master Hands ver. 2.17.3.18 (Institute for Advanced Biosciences, Keio University) was used."}, "[4]": {"system": "mitochondrial respiratory chain Complex I", "experiment": "MitoCheck Complex Activity Assay (Test Example 9)", "format": "biochemical", "conditions": "II, II/III, IV and V tested", "experimental": "Specifically, using the MitoCheck Complex Activity Assay Kit (Cayman Chemical Company, Ann Arbor, MI, USA), extent of relative activity of each of Complex I, Complex II, Complex II/III, Complex IV and Complex V constituting the mitochondrial respiratory chain that was reduced by neopetasin treatment was examined. Furthermore, as a negative control section, DMSO was administered to perform the same experiment. In addition, as a positive control section, rotenone (Complex I), TTFA (Complex II), antimycin A (Complexes II/III), KCN (Complex IV), and oligomycin (Complex V) were each administered, and the same experiment was conducted."}, "[5]": {"system": "B16F10 cells (mouse malignant melanoma cells)", "experiment": "Proliferation inhibition, B16F10 cells (Test Example 1)", "format": "cell-based", "conditions": "B16-F10, read-out: IC50, proliferation inhibitory activity on B16F10 cells"}, "B16F10 cells [6]": {"system": "B16F10 cells", "experiment": "Scratch wound healing assay (Test Example 5)", "format": "cell-based, mouse", "conditions": "0.3 µM, 72 hours", "experimental": "Specifically, to start with, B16F10 cells were seeded in a six-well plate in an amount of 1.0×10^5 cells/mL. After 24 hours starting from seeding, scratches were then made using 200 µL chips. Thereafter, the medium was changed to a neopetasin-containing one (concentration: 0.3 µM), the cells were further cultured for 72 hours, and the cells were photographed. In addition, as a negative control section, the same experiment was performed by replacing the medium with the same medium not containing neopetasin."}, "B16F10 cells [7]": {"system": "B16F10 cells", "experiment": "Spheroid formation assay (Test Example 4)", "format": "cell-based, mouse", "conditions": "0.3 µM or 3 µM; 24, 48 and 72 hours", "experimental": "Specifically, B16F10 cells were seeded in an amount of 0.3×10^5 cells/mL in a 96-well plate for spheroid formation in an amount of 100 µL each. Thereupon, neopetasin at a concentration of 0.3 µM or 3 µM was added to the medium. Cells were photographed using a phase-contrast microscope after 24 hours, 48 hours and 72 hours of adding neopetasin. Moreover, as a negative control section, DMSO was administered to perform the same experiment."}, "B16F10 cells [8]": {"system": "B16F10 cells", "experiment": "Mouse malignant melanoma lung metastasis model (Test Example 2)", "format": "in vivo", "conditions": "50 mg/kg intraperitoneally once every two days, 5 times; after 10 days", "experimental": "Using the mouse malignant melanoma lung metastasis model, the metastasis inhibitory effect of neopetasin on tumor cells was examined. Specifically, C57BL/6 mice (6 weeks old, female) were purchased from Japan SLC (Hamamatsu). Then, the B16F10 cells were intravenously administered from tail vein in an amount of 0.25×10^6 cells/100 µL PBS. Then, from the day when the cells were seeded, neopetasin (50 mg/kg) was intraperitoneally administered once every two days (5 times in total). After 10 days from the start of administration, the lungs were dissected and extracted, and the number of metastasis lesions observed on the lung surface was counted. In addition, the P value was calculated using Student’s T-test using the GraphPad Prism software system (GraphPad software Inc) ."}}, "note": "Values joined by “and” are separate entries in the source; they are usually repeats but may differ in a detail not shown here. Equal values may be shown once. “Also recorded” adds a separate entry of the source."}
{"smiles": "C=C(C)[C@H]1C[C@@]2(C)C(=CC1=O)CC[C@@H](OC(=O)/C(C)=C\\C)[C@@H]2C", "note": "[Neopetasin, neopetasin]", "values": [{"measurement": "inhibitory effect on proliferation of / cytotoxicity to normal cells", "setting": "[1]; ASF4-1 cells", "value": "hardly exhibits the inhibitory effect on proliferation of normal cells; also recorded: shows no cytotoxicity"}, {"measurement": "IC50 for ASF4-1 cells (normal cells) relative to IC50 for tumor cells", "setting": "[1]; versus A2058 cells and B16F10 cells", "value": "≥ 1000", "unit": "fold"}, {"measurement": "activity relative to metformin", "setting": "[2]; neopetasin 3 µM vs metformin 5000 µM", "value": "≥ 1000", "unit": "times"}, {"measurement": "MitoTracker Orange fluorescence intensity", "setting": "[2]; neopetasin 3 µM, metformin 5000 µM, 48 hours", "value": "enhanced fluorescence intensity"}, {"measurement": "concentration of aspartic acid (Asp) in the sample", "setting": "B16F10 cells [3]; 3 µM, after 9 hours", "value": "strongly reduced"}, {"measurement": "aspartic acid synthesis, remaining fraction", "setting": "B16F10 cells [3]; summary statement", "value": "⅒"}, {"measurement": "relative activity of mitochondrial respiratory chain complexes", "setting": "[4]", "value": "selectively reduced only the relative activity of the mitochondrial respiratory chain Complex I"}, {"measurement": "IC50", "setting": "[5]", "value": "493 nM and 0.156 µg/mL"}, {"measurement": "migration of tumor cells to the scratch portion", "setting": "B16F10 cells [6]", "value": "suppressed"}, {"measurement": "spheroid formation", "setting": "B16F10 cells [7]", "value": "could not form spheroids"}, {"measurement": "lung metastasis (number of metastasis lesions on the lung surface)", "setting": "B16F10 cells [8]", "value": "extremely potently suppressed lung metastasis; also recorded: inhibited lung metastasis"}]}
